One data set concerns male rats. Conditions: rat, in vivo. Here is the method:
Veratridine was injected intra-plantar at 30 micrograms.
Known preclinical and clinical analgesics were tested to see if they could prevent veratridine-induced behaviors.

The subject of a further data set is male CD1 mice. Format: in vivo, mouse.
Data set [1] relates to NaV1.7. The format is in vivo, mouse. The note with it: for Flinching response to paw injection: one microgram. The text has this: Activation of one, some, or all of the nine sodium channel isoforms might produce painful behaviors. […] All behavioral experiments were done with the observer blinded as to the mouse genotype or treatment.
A further data set deals with NaV1.3 (Rattus norvegicus, UniProt P08104). The note with it: read-out: TTX IC50; cited from earlier work.
Another data set deals with NaV1.4 (Rattus norvegicus, UniProt P15390). The note with it: read-out: TTX IC50; cited from earlier work.
For the next data set, the target named is NaV1.6 (Rattus norvegicus, UniProt O88420). The note with it: read-out: TTX IC50; cited from earlier work.
Data set [2] addresses NaV1.7 (Rattus norvegicus, UniProt O08562). Conditions: read-out: TTX IC50; cited from earlier work.
The next data set concerns the target NaV1.8 (Rattus norvegicus, UniProt Q62968). Conditions: read-out: TTX IC50; cited from earlier work.
The target in the next data set is hNaV1.7 (Homo sapiens, UniProt Q15858).

Molecules are shown by their SMILES. “Also recorded” adds a separate entry of the source. Where two headings read alike, the source gives them in different places.

hNaV1.7, sequence (Q15858 whole entry): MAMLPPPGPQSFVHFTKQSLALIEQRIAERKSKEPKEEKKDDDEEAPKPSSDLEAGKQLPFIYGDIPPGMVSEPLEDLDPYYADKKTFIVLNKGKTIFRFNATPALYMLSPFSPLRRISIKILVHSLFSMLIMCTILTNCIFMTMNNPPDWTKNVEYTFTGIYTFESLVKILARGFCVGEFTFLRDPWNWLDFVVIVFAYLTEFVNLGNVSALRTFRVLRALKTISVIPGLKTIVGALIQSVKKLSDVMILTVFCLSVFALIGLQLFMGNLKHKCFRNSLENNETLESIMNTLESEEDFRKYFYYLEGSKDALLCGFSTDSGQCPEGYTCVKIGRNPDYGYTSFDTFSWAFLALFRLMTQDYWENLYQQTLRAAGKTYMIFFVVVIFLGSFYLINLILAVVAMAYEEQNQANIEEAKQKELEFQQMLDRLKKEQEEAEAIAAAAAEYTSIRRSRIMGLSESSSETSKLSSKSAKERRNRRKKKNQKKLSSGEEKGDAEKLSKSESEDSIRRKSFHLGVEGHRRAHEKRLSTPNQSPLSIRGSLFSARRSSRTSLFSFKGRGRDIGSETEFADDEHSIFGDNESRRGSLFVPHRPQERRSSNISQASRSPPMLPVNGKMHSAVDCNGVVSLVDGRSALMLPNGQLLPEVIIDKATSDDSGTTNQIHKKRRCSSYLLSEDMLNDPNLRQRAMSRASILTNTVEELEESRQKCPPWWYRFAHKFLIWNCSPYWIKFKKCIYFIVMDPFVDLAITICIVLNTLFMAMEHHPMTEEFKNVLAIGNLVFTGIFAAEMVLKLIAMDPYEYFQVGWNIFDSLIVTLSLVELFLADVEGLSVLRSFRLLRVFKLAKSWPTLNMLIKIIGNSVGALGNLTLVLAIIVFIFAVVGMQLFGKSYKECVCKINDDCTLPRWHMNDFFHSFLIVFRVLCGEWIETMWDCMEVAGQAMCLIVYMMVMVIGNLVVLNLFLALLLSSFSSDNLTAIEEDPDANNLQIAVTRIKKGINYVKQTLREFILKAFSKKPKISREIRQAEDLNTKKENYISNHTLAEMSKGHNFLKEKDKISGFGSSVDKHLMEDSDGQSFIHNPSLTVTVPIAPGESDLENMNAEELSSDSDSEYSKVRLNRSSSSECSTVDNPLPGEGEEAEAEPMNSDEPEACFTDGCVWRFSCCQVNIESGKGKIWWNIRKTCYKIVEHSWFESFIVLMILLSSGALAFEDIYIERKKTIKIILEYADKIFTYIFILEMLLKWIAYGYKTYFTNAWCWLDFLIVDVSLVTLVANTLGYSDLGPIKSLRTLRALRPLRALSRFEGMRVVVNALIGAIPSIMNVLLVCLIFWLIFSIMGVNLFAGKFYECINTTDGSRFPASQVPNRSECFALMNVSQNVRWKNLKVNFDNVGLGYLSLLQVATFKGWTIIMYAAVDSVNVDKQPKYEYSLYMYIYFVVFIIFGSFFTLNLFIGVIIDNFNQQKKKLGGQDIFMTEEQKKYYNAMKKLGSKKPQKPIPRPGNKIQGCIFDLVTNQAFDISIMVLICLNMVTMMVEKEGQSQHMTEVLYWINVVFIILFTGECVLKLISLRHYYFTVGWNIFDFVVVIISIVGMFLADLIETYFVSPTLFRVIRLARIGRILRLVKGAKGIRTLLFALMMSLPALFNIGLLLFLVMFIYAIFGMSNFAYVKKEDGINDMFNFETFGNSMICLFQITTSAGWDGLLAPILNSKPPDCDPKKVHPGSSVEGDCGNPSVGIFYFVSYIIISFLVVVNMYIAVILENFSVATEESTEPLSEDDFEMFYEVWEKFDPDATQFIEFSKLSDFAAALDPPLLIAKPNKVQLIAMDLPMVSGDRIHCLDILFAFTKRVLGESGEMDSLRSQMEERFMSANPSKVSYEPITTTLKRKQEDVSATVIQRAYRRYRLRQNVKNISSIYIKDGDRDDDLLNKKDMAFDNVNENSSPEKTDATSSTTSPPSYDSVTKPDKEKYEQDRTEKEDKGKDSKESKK
NaV1.3, sequence (P08104 whole entry, looked up): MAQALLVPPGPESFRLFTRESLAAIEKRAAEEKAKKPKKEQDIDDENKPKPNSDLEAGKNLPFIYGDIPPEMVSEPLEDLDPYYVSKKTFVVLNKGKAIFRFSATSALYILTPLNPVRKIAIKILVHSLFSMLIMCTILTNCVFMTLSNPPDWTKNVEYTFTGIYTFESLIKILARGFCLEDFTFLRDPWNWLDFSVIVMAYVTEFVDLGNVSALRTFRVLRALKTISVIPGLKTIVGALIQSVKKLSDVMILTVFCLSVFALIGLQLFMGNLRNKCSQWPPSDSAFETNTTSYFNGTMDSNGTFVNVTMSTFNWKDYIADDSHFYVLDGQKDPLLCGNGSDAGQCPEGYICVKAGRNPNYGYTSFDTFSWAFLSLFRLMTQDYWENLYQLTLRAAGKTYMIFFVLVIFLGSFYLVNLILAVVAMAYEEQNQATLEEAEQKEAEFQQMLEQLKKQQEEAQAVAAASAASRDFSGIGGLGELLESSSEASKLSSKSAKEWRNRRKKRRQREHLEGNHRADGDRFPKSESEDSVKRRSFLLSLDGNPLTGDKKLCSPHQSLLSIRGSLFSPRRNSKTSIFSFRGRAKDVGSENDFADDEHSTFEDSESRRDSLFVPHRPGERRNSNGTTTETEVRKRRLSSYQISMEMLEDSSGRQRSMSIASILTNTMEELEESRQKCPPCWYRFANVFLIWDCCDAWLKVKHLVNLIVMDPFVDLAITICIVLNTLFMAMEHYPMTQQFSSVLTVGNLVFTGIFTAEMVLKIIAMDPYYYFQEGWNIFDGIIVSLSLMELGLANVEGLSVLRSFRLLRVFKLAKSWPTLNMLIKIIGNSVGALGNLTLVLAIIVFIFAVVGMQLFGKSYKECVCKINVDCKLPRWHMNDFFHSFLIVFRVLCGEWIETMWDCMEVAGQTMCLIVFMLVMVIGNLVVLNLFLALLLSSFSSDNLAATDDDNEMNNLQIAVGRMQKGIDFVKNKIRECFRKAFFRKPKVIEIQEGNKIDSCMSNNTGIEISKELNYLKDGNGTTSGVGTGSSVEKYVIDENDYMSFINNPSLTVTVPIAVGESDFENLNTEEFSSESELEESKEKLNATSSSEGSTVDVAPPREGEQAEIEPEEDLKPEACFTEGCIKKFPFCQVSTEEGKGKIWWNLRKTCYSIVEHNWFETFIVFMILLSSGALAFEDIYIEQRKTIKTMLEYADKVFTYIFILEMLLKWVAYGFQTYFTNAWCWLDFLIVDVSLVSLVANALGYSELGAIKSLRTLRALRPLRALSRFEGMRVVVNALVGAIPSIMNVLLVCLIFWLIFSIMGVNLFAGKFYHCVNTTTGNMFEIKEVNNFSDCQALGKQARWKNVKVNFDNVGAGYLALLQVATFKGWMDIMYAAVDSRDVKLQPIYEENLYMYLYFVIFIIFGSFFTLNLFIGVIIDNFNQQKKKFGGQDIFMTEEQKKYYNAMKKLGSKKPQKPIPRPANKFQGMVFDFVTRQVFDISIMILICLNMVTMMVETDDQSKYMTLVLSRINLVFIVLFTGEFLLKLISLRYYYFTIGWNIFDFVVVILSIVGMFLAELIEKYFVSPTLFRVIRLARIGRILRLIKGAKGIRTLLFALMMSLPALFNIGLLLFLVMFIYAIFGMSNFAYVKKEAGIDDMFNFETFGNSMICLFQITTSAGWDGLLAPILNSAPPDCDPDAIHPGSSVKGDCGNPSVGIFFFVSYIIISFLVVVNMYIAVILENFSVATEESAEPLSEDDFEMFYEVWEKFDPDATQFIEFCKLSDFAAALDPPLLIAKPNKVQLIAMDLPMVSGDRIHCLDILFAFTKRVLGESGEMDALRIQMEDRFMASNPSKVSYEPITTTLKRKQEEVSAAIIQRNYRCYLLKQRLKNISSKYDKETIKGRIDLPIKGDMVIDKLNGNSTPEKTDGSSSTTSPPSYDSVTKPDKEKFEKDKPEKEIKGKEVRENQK

As for `CN1C(=O)CN=C(c2ccccc2)c2cc(Cl)ccc21` [Diazepam], in the data set with male rats, the “Inhibition of veratridine-induced pain-like behaviors (licking and paw-flinching)” value (“Inhibition” for short) is listed as “ineffective”; the “Significant Reversal of Edema” value is “No”; the “Significant Reversal of Flinching” value is given as “No”; the “Significant Reversal of Lifting” value is “No”.
With `CNCC[C@H](Oc1cccc2ccccc12)c1cccs1` [Duloxetine, duloxetine], in the data set on male rats, the “Inhibition” value is recorded as “inhibited somewhat”; the “Significant Reversal of Edema” value is “No”.
The corresponding values for `NCC1(CC(=O)O)CCCCC1` [Gabapentin, gabapentin] are “not all” and “No”.
For `Cc1cccc(C)c1OCC(C)N` (stereo not shown) [Mexiletine, mexiletine], in the data set on male rats, the “Inhibition” value is recorded as “inhibited fully”; the “Significant Reversal of Edema” value is recorded as “Yes”; the “Significant Reversal of Flinching” value is “Yes”; the “Significant Reversal of Lifting” value is on record as “Yes”. For the same molecule, the “Lifting and flinching behaviors” value with male rats (po) was “prevented in a dose-dependent manner”. In the data set with male CD1 mice (mouse, in vivo, ip, 30 mg/kg), the “Block of effects of veratridine (total lifting time)” value is recorded as “blocked”, the “Prevention of lifting/licking response to deltamethrin” value is “prevented the lifting/licking response” and the “Prevention of lifting/licking response to grayanotoxin III” value is on record as “prevented the lifting/licking response”. Also, the “Prevention of veratridine-induced flinching / lifting/licking” value with NaV1.7 [1] (mouse, in vivo) is reported as “prevents the flinching behavior; also recorded: prevented flinching”.
As to `CN1CC[C@]23c4c5ccc(O)c4O[C@H]2[C@@H](O)C=C[C@H]3[C@H]1C5` [Morphine, morphine], in the data set on male rats, the “Inhibition” value was “inhibited somewhat”; the “Significant Reversal of Edema” value is reported as “No”.
For `COc1ccc2cc([C@H](C)C(=O)O)ccc2c1` [Naproxen, naproxen], the “Significant Reversal of Edema” value in the data set with male rats is listed as “No”.
Turning to `NC1=N[C@H](O)[C@H]2[C@H]3O[C@]4(O)O[C@@H]([C@@H](O)[C@@]2(N1)[C@@H]4O)[C@]3(O)CO` [TTX, tetrodotoxin], the IC50 (in general, the concentration at which inhibition is half-maximal) on NaV1.3 is 2 to 15 nM; at NaV1.4, 5 nM; on NaV1.6, 1 nM; on NaV1.7 [2], 4 nM; on NaV1.8, more than 50000 nM.
Regarding `CC1(C)[C@H](C(=O)O[C@H](C#N)c2cccc(Oc3ccccc3)c2)[C@@H]1C=C(Br)Br` [deltamethrin], the “Lifting/licking response (total flinches) after injection” value in the data set on male CD1 mice (male CD1 mice, 10 microgram suspension dose of deltamethrin) was “produced a lifting/licking response”.
In the case of `CC1(O)CC23CC(O)C4(O)C(CC(O)C4(C)C)C(C)(O)C2CCC1C3O` (stereo not shown) [grayanotoxin III], the “Lifting/licking response (total flinches) after injection” value in the data set on male CD1 mice (mouse, in vivo) is “produced a lifting/licking response”. For the same molecule, at hNaV1.7, the “Activation of hNaV1.7” value is “activated hNaV1.7; also recorded: activated NaV1.7” and the “Voltage at which sodium currents start to activate” value is on record as −95 mV.
Take `COc1ccc(C(=O)O[C@H]2CC[C@@]3(C)[C@@H]4CC[C@@H]5C3(C[C@@]3(O)[C@@H]6CN7C[C@@H](C)CC[C@H]7[C@@](C)(O)[C@@]6(O)[C@@H](O)C[C@@]53O)O[C@]24O)cc1OC` [veratridine, 4α,9-Epoxy-3β-veratroyloxy-5β-cevan-4β,12,14,16β,17,20-hexaol]: in the data set on male rats, the “Pain-related behaviors (paw lifting/licking, flinching) after injection into the paw” value is on record as “caused two separate pain-related behaviors” and the “Side effects at higher doses” value was “variable neurological side effects”. In addition, in the data set with male CD1 mice (mouse, in vivo), the “Lifting behavior after i.pl. injection” value is reported as “caused equivalent lifting behavior”. For the same molecule, the “Flinching response to paw injection” value in the data set on NaV1.7 [1] (global NaV1.7 knockout mice) is “no flinching or licking behavior; also recorded: no effect; also recorded: no response”. The “Flinching response to paw injection” value in the data set on NaV1.7 [1] (wild type heterozygote mice) was “robust flinching behavior; also recorded: robust flinching response”.
